In patent US9926282B2, “Phthalazinones and isoquinolinones as rock inhibitors” (BRISTOL-MYERS SQUIBB COMPANY, priority 2013, dated 2018):

How the values were obtained:
[1] = molecular target: ROCK1 (Homo sapiens (Human), UniProt Q13464); assay: ROCK assay (LABCHIP peptide phosphorylation), ROCK1; format: biochemical; details: 5 μM ATP, 1.5 μM peptide substrate; read-out: ROCK1 IC50
[2] = molecular target: ROCK2 (Homo sapiens (Human), UniProt O75116); assay: ROCK assay (LABCHIP peptide phosphorylation), ROCK2; format: biochemical; details: 5 μM ATP, 1.5 μM peptide substrate
Sequence of ROCK2 (O75116 whole entry, species assumed): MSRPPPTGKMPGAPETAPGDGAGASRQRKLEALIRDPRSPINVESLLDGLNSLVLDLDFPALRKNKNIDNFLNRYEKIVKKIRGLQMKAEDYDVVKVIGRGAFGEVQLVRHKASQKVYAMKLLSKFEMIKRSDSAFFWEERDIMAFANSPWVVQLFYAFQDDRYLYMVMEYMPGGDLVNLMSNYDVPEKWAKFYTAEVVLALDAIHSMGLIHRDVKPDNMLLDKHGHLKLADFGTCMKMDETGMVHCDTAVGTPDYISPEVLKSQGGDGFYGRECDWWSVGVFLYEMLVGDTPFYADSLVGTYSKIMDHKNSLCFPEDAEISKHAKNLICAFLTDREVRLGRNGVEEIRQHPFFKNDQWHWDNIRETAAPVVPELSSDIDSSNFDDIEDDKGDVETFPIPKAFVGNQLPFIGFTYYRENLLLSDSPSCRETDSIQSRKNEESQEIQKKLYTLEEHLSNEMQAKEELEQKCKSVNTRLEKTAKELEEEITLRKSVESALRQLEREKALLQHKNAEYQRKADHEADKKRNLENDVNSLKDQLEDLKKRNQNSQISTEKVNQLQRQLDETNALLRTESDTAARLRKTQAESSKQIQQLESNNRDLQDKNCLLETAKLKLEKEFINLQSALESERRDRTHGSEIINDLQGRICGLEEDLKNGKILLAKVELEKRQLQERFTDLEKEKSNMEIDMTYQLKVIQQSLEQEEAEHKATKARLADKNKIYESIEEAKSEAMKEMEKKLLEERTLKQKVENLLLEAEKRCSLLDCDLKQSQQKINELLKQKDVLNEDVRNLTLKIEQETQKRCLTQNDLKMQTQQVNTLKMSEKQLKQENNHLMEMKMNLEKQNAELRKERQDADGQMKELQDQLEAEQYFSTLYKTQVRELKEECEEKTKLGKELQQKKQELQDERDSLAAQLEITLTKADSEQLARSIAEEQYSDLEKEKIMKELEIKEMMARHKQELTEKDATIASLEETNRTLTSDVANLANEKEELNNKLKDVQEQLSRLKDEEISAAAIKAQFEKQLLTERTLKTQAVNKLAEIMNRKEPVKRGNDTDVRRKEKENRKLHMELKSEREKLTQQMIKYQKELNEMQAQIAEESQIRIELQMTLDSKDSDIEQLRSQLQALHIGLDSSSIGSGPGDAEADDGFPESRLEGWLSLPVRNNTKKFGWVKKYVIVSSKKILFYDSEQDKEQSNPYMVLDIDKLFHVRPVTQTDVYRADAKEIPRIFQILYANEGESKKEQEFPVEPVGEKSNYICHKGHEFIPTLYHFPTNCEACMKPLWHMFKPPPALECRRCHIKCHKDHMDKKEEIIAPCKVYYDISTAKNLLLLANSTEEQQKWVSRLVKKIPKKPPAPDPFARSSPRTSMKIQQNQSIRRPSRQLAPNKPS

Sequence of ROCK1 (Q13464 whole entry, species assumed): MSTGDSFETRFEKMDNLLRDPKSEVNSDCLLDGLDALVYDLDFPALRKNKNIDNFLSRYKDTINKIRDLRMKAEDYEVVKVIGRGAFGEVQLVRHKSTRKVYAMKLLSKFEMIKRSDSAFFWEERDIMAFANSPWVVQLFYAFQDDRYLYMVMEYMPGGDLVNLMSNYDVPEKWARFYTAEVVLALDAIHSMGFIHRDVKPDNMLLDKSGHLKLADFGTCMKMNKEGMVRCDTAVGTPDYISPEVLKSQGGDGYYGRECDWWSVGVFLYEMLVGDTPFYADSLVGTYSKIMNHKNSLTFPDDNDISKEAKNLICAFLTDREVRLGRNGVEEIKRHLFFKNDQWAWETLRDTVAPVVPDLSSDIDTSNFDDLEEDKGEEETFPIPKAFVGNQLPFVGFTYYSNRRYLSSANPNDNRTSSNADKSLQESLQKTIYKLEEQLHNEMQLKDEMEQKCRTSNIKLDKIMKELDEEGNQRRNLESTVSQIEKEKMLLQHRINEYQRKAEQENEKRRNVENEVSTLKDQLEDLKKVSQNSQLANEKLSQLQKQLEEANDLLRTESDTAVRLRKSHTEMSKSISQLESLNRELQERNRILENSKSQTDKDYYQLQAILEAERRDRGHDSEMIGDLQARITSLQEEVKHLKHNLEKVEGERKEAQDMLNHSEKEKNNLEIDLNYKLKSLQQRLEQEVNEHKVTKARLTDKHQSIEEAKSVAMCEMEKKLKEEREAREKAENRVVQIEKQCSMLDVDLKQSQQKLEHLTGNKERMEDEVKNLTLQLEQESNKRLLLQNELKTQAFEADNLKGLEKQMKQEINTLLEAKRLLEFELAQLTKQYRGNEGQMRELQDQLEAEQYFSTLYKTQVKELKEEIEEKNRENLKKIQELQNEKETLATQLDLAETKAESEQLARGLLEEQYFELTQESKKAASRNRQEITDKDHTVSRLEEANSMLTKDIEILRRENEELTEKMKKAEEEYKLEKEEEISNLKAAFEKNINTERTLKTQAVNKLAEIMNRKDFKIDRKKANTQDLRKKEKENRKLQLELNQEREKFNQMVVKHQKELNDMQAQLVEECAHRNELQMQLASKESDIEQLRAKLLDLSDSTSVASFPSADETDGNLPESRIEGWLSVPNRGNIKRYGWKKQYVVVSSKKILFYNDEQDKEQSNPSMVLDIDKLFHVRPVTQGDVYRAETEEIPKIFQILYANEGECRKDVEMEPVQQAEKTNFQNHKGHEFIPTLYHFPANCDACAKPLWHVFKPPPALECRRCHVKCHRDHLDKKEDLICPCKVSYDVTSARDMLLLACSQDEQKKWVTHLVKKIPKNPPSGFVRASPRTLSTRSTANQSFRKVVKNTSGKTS

| IC50 [1] [nM] | IC50 [2] [nM] | SMILES |
| --- | --- | --- |
| 0.1 to 100 | 0.1 to 100 | O=C(Cc1ccc(-c2n[nH]c(=O)c3ccccc23)cc1)N1CCc2ccc(OCc3ccccn3)cc21 [Example 271, 4-(4-{2-oxo-2-[6-(pyridin-2-ylmethoxy)-2,3-dihydro-1H-indol-1-yl]ethyl}phenyl)-1,2-dihydrophthalazin-1-one] |
| 0.1 to 100 | 0.1 to 100 | O=C(Cc1ccc(-c2n[nH]c(=O)c3ccccc23)cc1)N1CCc2ccc(OCc3ccncc3)cc21 [Example 272, 4-(4-{2-oxo-2-[6-(pyridin-4-ylmethoxy)-2,3-dihydro-1H-indol-1-yl]ethyl}phenyl)-1,2-dihydrophthalazin-1-one] |
| 101 to 1000 | 0.1 to 100 | CC(C)Oc1ccc2c(c1)CCN2C(=O)Cc1ccc(-c2n[nH]c(=O)c3ccccc23)cc1 [Example 273, 4-(4-{2-oxo-2-[5-(propan-2-yloxy)-2,3-dihydro-1H-indol-1-yl]ethyl}phenyl)-1,2-dihydrophthalazin-1-one] |
| 0.1 to 100 | 0.1 to 100 | O=C(Cc1ccc(-c2n[nH]c(=O)c3ccccc23)cc1)N1CCc2ccc(O[C@@H]3CCOC3)cc21 [Example 274, 4-[4-(2-oxo-2-{6-[(3R)-oxolan-3-yloxy]-2,3-dihydro-1H-indol-1-yl}ethyl)phenyl]-1,2-dihydrophthalazin-1-one] |
| 0.1 to 100 | 0.1 to 100 | O=C(Cc1ccc(-c2n[nH]c(=O)c3ccccc23)cc1)N1CCc2ccc(O[C@H]3CCOC3)cc21 [Example 275, 4-[4-(2-oxo-2-(6-[(3S)-oxolan-3-yloxy]-2,3-dihydro-1H-indol-1-yl}ethyl)phenyl]-1,2-dihydrophthalazin-1-one] |
| 1000 to 50000 | 0.1 to 100 | O=C(Cc1ccc(-c2n[nH]c(=O)c3ccccc23)cc1)Nc1noc2c1CCCC2 [Example 276, 2-[4-(4-oxo-3,4-dihydrophthalazin-1-yl)phenyl]-N-(4,5,6,7-tetrahydro-1,2-benzoxazol-3-yl)acetamide] |
| 101 to 1000 | 0.1 to 100 | CN1CC[C@@H](Oc2ccc3c(c2)N(C(=O)Cc2ccc(-c4n[nH]c(=O)c5ccccc45)cc2)CC3)C1 [Example 277, 4-{4-[2-(6-{[(3R)-1-methylpyrrolidin-3-yl]oxy}-2,3-dihydro-1H-indol-1-yl)-2-oxoethyl]phenyl}-1,2-dihydrophthalazin-1-one] |
| 101 to 1000 | 0.1 to 100 | CC(C)(C)c1cc(NC(=O)Cc2ccc(-c3n[nH]c(=O)c4ccccc34)cc2)no1 [Example 278, N-(5-tert-butyl-1,2-oxazol-3-yl)-2-[4-(4-oxo-3,4-dihydrophthalazin-1-yl)phenyl]acetamide] |
| 101 to 1000 | 0.1 to 100 | CN(C)CCOc1ccc2c(c1)N(C(=O)Cc1ccc(-c3n[nH]c(=O)c4ccccc34)cc1)CC2 [Example 279, 4-[4-(2-{6-[2-(dimethylamino)ethoxy]-2,3-dihydro-1H-indol-1-yl}-2-oxoethyl)phenyl]-1,2-dihydrophthalazin-1-one] |
| 101 to 1000 | 0.1 to 100 | Cc1onc(NC(=O)Cc2ccc(-c3n[nH]c(=O)c4ccccc34)cc2)c1C [Example 280, N-(dimethyl-1,2-oxazol-3-yl)-2-[4-(4-oxo-3,4-dihydrophthalazin-1-yl)phenyl]acetamide] |
| 101 to 1000 | 0.1 to 100 | CN1CC[C@H](Oc2ccc3c(c2)N(C(=O)Cc2ccc(-c4n[nH]c(=O)c5ccccc45)cc2)CC3)C1 [Example 281, 4-{4-[2-(6-{[(3S)-1-methylpyrrolidin-3-yl]oxy}-2,3-dihydro-1H-indol-1-yl)-2-oxoethyl]phenyl}-1,2-dihydrophthalazin-1-one] |
| 101 to 1000 | 0.1 to 100 | CN1CCC(Oc2ccc3c(c2)N(C(=O)Cc2ccc(-c4n[nH]c(=O)c5ccccc45)cc2)CC3)CC1 [Example 282, 4-[4-(2-{6-[(1-methylpiperidin-4-yl)oxy]-2,3-dihydro-1H-indol-1-yl}-2-oxoethyl)phenyl]-1,2-dihydrophthalazin-1-one] |
| 0.1 to 100 | 0.1 to 100 | COC(=O)COc1ccc2c(c1)N(C(=O)Cc1ccc(-c3n[nH]c(=O)c4ccccc34)cc1)CC2 [Example 283, methyl 2-[(1-{2-[4-(4-oxo-3,4-dihydrophthalazin-1-yl)phenyl]acetyl}-2,3-dihydro-1H-indol-6-yl)oxy]acetate] |
| 0.1 to 100 | 0.1 to 100 | O=C(Cc1ccc(-c2n[nH]c(=O)c3ccccc23)cc1)N1CCc2ccc(OCC3COC3)cc21 [Example 284, 4-(4-{2-[6-(oxetan-3-ylmethoxy)-2,3-dihydro-1H-indol-1-yl]-2-oxoethyl}phenyl)-1,2-dihydrophthalazin-1-one] |
| 0.1 to 100 | 0.1 to 100 | O=C(Cc1ccc(-c2n[nH]c(=O)c3ccccc23)cc1)N1CCc2ccc([N+](=O)[O-])cc21 [Example 285, 4-{4-[2-(6-nitro-2,3-dihydro-1H-indol-1-yl)-2-oxoethyl]phenyl}-1,2-dihydrophthalazin-1-one] |
| 101 to 1000 | 0.1 to 100 | O=C(Cc1ccc(-c2n[nH]c(=O)c3ccccc23)cc1)N1CCc2ccc(OCCN3CCCC3)cc21 [Example 286, 4-[4-(2-oxo-2-{6-[2-(pyrrolidin-1-yl)ethoxy]-2,3-dihydro-1H-indol-1-yl}ethyl)phenyl]-1,2-dihydrophthalazin-1-one] |
| 0.1 to 100 | 0.1 to 100 | CC(C)(O)COc1ccc2c(c1)N(C(=O)Cc1ccc(-c3c[nH]c(=O)c4ccccc34)cc1)CC2 [Example 288, 4-(4-(2-(6-(2-Hydroxy-2-methylpropoxy)indolin-1-yl)-2-oxoethyl)phenyl)isoquinolin-1(2H)-one] |
| 0.1 to 100 | 0.1 to 100 | COc1ccc2c(=O)[nH]cc(-c3ccc(CC(=O)N4CCc5ccc(OCC(C)(C)O)cc54)cc3)c2c1 [Example 289, 4-(4-(2-(6-(2-Hydroxy-2-methylpropoxy)indolin-1-yl)-2-oxoethyl)phenyl)-6-methoxyisoquinolin-1(2H)-one] |
| 0.1 to 100 | 0.1 to 100 | O=C(O)COc1ccc2c(c1)N(C(=O)Cc1ccc(-c3n[nH]c(=O)c4ccccc34)cc1)CC2 [Example 290, 2-((1-(2-(4-(4-Oxo-3,4-dihydrophthalazin-1-yl)phenyl)acetyl)indolin-6-yl)oxy)acetic Acid] |
| 101 to 1000 | 0.1 to 100 | CN(C)C(=O)c1ccc2c(c1)N(C(=O)Cc1ccc(-c3n[nH]c(=O)c4ccccc34)cc1)CC2 [Example 291, N,N-dimethyl-1-{2-[4-(4-oxo-3,4-dihydrophthalazin-1-yl)phenyl]acetyl}-2,3-dihydro-1H-indole-6-carboxamide] |
| 101 to 1000 | 0.1 to 100 | CN1CCN(C(=O)c2ccc3c(c2)N(C(=O)Cc2ccc(-c4n[nH]c(=O)c5ccccc45)cc2)CC3)CC1 [Example 292, 4-(4-{2-[6-(4-methylpiperazine-1-carbonyl)-2,3-dihydro-1H-indol-1-yl]-2-oxoethyl}phenyl)-1,2-dihydrophthalazin-1-one] |
| 101 to 1000 | 0.1 to 100 | O=C(c1ccc2c(c1)N(C(=O)Cc1ccc(-c3n[nH]c(=O)c4ccccc34)cc1)CC2)N1CCOCC1 [Example 293, 4-(4-{2-[6-(morpholine-4-carbonyl)-2,3-dihydro-1H-indol-1-yl]-2-oxoethyl}phenyl)-1,2-dihydrophthalazin-1-one] |
| 101 to 1000 | 0.1 to 100 | O=C(c1ccc2c(c1)CCN2C(=O)Cc1ccc(-c2n[nH]c(=O)c3ccccc23)cc1)N1CCC(O)CC1 [Example 294, 4-(4-{2-[5-(4-hydroxypiperidine-1-carbonyl)-2,3-dihydro-1H-indol-1-yl]-2-oxoethyl}phenyl)-1,2-dihydrophthalazin-1-one] |
| 101 to 1000 | 0.1 to 100 | O=C(c1ccc2c(c1)N(C(=O)Cc1ccc(-c3n[nH]c(=O)c4ccccc34)cc1)CC2)N1CCC(O)CC1 [Example 295, 4-(4-{2-[6-(4-hydroxypiperidine-1-carbonyl)-2,3-dihydro-1H-indol-1-yl]-2-oxoethyl}phenyl)-1,2-dihydrophthalazin-1-one] |
| 101 to 1000 | 0.1 to 100 | O=C(c1ccc2c(c1)CCN2C(=O)Cc1ccc(-c2n[nH]c(=O)c3ccccc23)cc1)N1CCOCC1 [Example 296, 4-(4-{2-[5-(morpholine-4-carbonyl)-2,3-dihydro-1H-indol-1-yl]-2-oxoethyl}phenyl)-1,2-dihydrophthalazin-1-one] |
| 0.1 to 100 | 0.1 to 100 | O=C(COc1ccc2c(c1)N(C(=O)Cc1ccc(-c3n[nH]c(=O)c4ccccc34)cc1)CC2)N1CCOCC1 [Example 297, 4-(4-(2-(6-(2-Morpholino-2-oxoethoxy)indolin-1-yl)-2-oxoethyl)phenyl)phthalazin-1(2H)-one] |
| 0.1 to 100 | 0.1 to 100 | NC(=O)COc1ccc2c(c1)N(C(=O)Cc1ccc(-c3n[nH]c(=O)c4ccccc34)cc1)CC2 [Example 298, 2-((1-(2-(4-(4-Oxo-3,4-dihydrophthalazin-1-yl)phenyl)acetyl)indolin-6-yl)oxy)acetamide] |

| SMILES | IC50 [1] [nM] | IC50 [2] [nM] |
| --- | --- | --- |
| O=C(Cc1ccc(-c2c[nH]c(=O)c3ccccc23)c(F)c1)N1CCc2ccccc21 [Example 287, 4-(2-Fluoro-4-(2-(indolin-1-yl)-2-oxoethyl)phenyl)isoquinolin-1 (2H)-one] | 0.1 to 100 | 0.1 to 100 |
| CN1CCN(C(=O)COc2ccc3c(c2)N(C(=O)Cc2ccc(-c4n[nH]c(=O)c5ccccc45)cc2)CC3)CC1 [Example 299, 4-(4-(2-(6-(2-(4-Methylpiperazin-1-yl)-2-oxoethoxy)indolin-1-yl)-2-oxoethyl)phenyl)phthalazin-1(2H)-one] | 101 to 1000 | 0.1 to 100 |
| CN(C)c1ccc(C(=O)Nc2ccc3c(c2)N(C(=O)Cc2ccc(-c4n[nH]c(=O)c5ccccc45)cc2)CC3)cc1 [Example 300, 4-(Dimethylamino)-N-(1-(2-(4-(4-oxo-3,4-dihydrophthalazin-1-yl)phenyl)acetyl)indolin-6-yl)benzamide] | 0.1 to 100 | 0.1 to 100 |
| Cc1cc(NC(=O)c2nn(CC(C)(C)O)c3ccccc23)ccc1-c1n[nH]c(=O)c2ccccc12 [Example 301, 1-(2-hydroxy-2-methylpropyl)-N-[3-methyl-4-(4-oxo-3,4-dihydrophthalazin-1-yl)phenyl]-1H-indazole-3-carboxamide] | 0.1 to 100 | 0.1 to 100 |
